The results in this text go back to patent US8642657B2 (Gruenenthal GmbH, priority 2003, dated 2014).

Usually melting point stands for the temperature, or range, at which the solid turns liquid. One may read the Ki as a dissociation constant, usually derived from enzyme kinetics or from competition with a known ligand.

In series [1] the target is T1, rat VR1 (Rattus norvegicus, UniProt O35433).
T1 construct: expressed in transfected cells
The series is described as follows: 45Ca2+-uptake assay in CHO/VR1 cells, antagonism of capsaicin-stimulated uptake. It is filed as cell-based. The note with it: 45Ca2+ uptake stimulated by 50 nM capsaicin.

Series [2] deals with T1, rat VR1. Kind of series: [3H]resiniferatoxin (RTX) competition binding assay, VR1-transfected CHO cells. The gist of the method:
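Competition with [3H]RTX (50-100 pM) ran 60 min at 37° C using whole VR1-induced CHO cells in BSA-containing DPBS, nonspecific defined by 100 nM cold RTX. After centrifugation, pellet radioactivity counted by scintillation; Hill fits gave Ki and cooperativity.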

Where [3] appears, read: competition with [3H]RTX, rat VR1 in CHO cells, read-out: Ki (nM) Binding Affinity.

T1 sequence (O35433 whole entry): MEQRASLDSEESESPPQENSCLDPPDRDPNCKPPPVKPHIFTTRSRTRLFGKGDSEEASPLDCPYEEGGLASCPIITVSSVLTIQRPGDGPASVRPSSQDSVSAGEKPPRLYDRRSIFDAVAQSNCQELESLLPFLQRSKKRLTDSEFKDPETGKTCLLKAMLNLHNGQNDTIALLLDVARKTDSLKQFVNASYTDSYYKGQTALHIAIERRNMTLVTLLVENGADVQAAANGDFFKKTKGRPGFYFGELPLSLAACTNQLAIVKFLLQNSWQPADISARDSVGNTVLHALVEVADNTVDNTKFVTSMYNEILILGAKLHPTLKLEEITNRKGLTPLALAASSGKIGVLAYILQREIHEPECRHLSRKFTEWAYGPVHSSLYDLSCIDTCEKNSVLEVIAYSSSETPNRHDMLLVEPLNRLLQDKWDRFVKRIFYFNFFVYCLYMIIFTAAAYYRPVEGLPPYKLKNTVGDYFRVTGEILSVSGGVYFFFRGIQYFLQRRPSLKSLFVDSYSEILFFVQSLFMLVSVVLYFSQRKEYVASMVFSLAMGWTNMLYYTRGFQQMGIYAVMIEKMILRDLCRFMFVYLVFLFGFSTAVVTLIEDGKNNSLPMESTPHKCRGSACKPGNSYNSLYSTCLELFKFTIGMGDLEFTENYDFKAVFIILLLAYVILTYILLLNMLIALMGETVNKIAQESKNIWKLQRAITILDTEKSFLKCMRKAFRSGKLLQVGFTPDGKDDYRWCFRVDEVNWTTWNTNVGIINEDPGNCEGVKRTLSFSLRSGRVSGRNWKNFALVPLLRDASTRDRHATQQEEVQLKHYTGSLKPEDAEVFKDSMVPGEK

On to `COc1cc(C2(C(=O)NCC(COC(=O)C(C)(C)C)Cc3ccc(C)c(C)c3)CC2)ccc1NS(C)(=O)=O` (stereo not drawn) [12-3, N-[2-(3,4-Dimethylbenzyl)-3-pivaloyloxypropyl]-1-[3-methoxy-4-(methylsulfonylamino)phenyl]cyclopropanecarboxamide], for which the melting point fell in the range of 66 to 68 °C. Moreover, affinity in series [1] was put at a Ki of 117 nM. The Ki in series [2] (setting [3]) was determined as 238 nM.
In turn, `Cc1ccc(CCCNC(=O)C2(c3ccc(NS(C)(=O)=O)cc3)CC2)cc1C` [12-4, N-[3-(3,4-Dimethylphenyl)propyl]-1-[4-(methylsulfonylamino)phenyl]cyclopropanecarboxamide] gave a melting point of 127 to 128 °C. Moreover, the Ki in series [1] is 1100 nM. In series [2], this compound showed a Ki of 1740 nM.
The compound `COc1cc(C2(C(=O)NCCCc3ccc(C)c(C)c3)CC2)ccc1NS(C)(=O)=O` [12-6, N-[3-(3,4-Dimethylphenyl)propyl]-1-[3-methoxy-4-(methylsulfonylamino)phenyl]cyclopropanecarboxamide] displayed a melting point of 88 to 89 °C. In series [1], this compound showed a Ki of 1240 nM. The compound also registered a Ki in series [2] of 1700 nM.
The compound `CC(C)(C)c1ccc(CNC(=O)C2(c3ccc(NS(C)(=O)=O)cc3)CC2)cc1` [12-7, N-(4-tert-Butylbenzyl)-1-[4-(methylsulfonylamino)phenyl]cyclopropanecarboxamide] had a melting point of 200 to 203 °C. In addition, in series [1], affinity was put at a Ki of 1760 nM. Further, the Ki in series [2] (setting [3]) is 608 nM.
With `COc1cc(C2(C(=O)NCc3ccc(C(C)(C)C)cc3)CC2)ccc1NS(C)(=O)=O` [12-9, N-(4-tert-Butylbenzyl)-1-[3-methoxy-4-(methylsulfonylamino)phenyl]cyclopropanecarboxamide], the melting point was in the range of 200 to 203 °C. In addition, in series [1], the affinity corresponds to a Ki of 2250 nM. Also, the Ki in series [2] (setting [3]) was determined as 745 nM.
Compound `CC(NC(=S)NCc1ccc(C(C)(C)C)cc1)c1ccc(NS(C)(=O)=O)c(F)c1` (stereo not drawn) [15-2, N-(4-t-Butylbenzyl)-N′-{1-[3-fluoro-4-(methylsulfonylamino)phenyl]ethyl}thiourea] had a melting point of 165 °C. Moreover, the Ki in series [1] was found to be 9.16 nM. Also, in series [2] (setting [3]), the inhibition constant (Ki) stood at 54 nM.
The compound `COc1cc(C(C)NC(=S)NCc2ccc(C(C)(C)C)cc2)ccc1NS(C)(=O)=O` (stereo not drawn) [15-3, N-(4-t-Butylbenzyl)-N′-{1-[3-methoxy-4-(methylsulfonylamino)phenyl]ethyl}thiourea] displayed a melting point of 80 to 82 °C. Further, the Ki in series [1] was found to be 28.6 nM. Further, the Ki in series [2] (setting [3]) was found to be 66.5 nM.
With `COC(=O)c1cc(C(C)NC(=S)NCc2ccc(C(C)(C)C)cc2)ccc1NS(C)(=O)=O` (stereo not drawn) [15-4, N-(4-t-Butylbenzyl)-N′-{1-[3-(methoxycarbonyl)-4-(methylsulfonylamino)phenyl]ethyl}thiourea], the melting point was in the range of 132 to 135 °C. In addition, affinity in series [1] was put at a Ki of 65.8 nM. Moreover, the Ki in series [2] was found to be 163 nM.
The like results for `C[C@@H](NC(=S)NC[C@H](COC(=O)C(C)(C)C)Cc1ccccc1)c1ccc(NS(C)(=O)=O)cc1` [18-1, N-[(2R)-2-Benzyl-3-(pivaloyloxy)propyl]-N′-{(1R)-1-[4-(methylsulfonylamino)phenyl]ethyl}thiourea] were, in that order, 62 to 64 °C, 44.5 nM and 22.7 nM.
In turn, `C[C@@H](NC(=S)NC[C@@H](COC(=O)C(C)(C)C)Cc1ccccc1)c1ccc(NS(C)(=O)=O)cc1` [18-2, N-[(2S)-2-Benzyl-3-(pivaloyloxy)propyl]-N′-{(1R)-1-[4-(methylsulfonylamino)phenyl]ethyl}thiourea] showed a melting point of 58 to 62 °C. Further, the Ki in series [1] amounted to 89 nM. In addition, the affinity in series [2], expressed as Ki, was 19.4 nM.
The compound `C[C@H](NC(=S)NC[C@H](COC(=O)C(C)(C)C)Cc1ccccc1)c1ccc(NS(C)(=O)=O)cc1` [18-3, N-[(2R)-2-Benzyl-3-(pivaloyloxy)propyl]-N′-{(1S)-1-[4-(methylsulfonylamino)phenyl]ethyl}thiourea] had a melting point of 58 to 62 °C. Also, in series [1], the Ki is 3470 nM. Affinity in series [2] was put at a Ki of 1140 nM.
The like results for `C[C@H](NC(=S)NC[C@@H](COC(=O)C(C)(C)C)Cc1ccccc1)c1ccc(NS(C)(=O)=O)cc1` [18-4, N-[(2S)-2-Benzyl-3-(pivaloyloxy)propyl]-N′-{(1S)-1-[4-(methylsulfonylamino)phenyl]ethyl}thiourea] were, in that order, 62 to 64 °C, 133 nM and 706 nM.
Turning to `Cc1ccc(CC(CNC(=S)NC(C)c2ccc(NS(C)(=O)=O)cc2)COC(=O)C(C)(C)C)cc1C` (stereo not drawn) [18-5, N-[2-(3,4-Dimethylbenzyl)-3-(pivaloyloxy)propyl]-N′-{1-[4-(methylsulfonylamino)phenyl]ethyl}thiourea], the melting point worked out at 77 °C. The same compound returned a Ki in series [1] of 25.9 nM. The compound also yielded a Ki in series [2] of 37.2 nM.
For `CC(NC(=S)NCC(COC(=O)C(C)(C)C)Cc1ccc(C(C)(C)C)cc1)c1ccc(NS(C)(=O)=O)cc1` (stereo not drawn) [18-9, N-[2-(4-tert-Butylbenzyl)-3-(pivaloyloxy)propyl]-N′-{1-[4-(methylsulfonylamino)phenyl]ethyl}thiourea], the melting point is 87 °C. Further, in series [1], the inhibition constant (Ki) stood at 28.7 nM. The same compound displayed a Ki in series [2] of 42.7 nM.
The like results for `C[C@@H](NC(=S)NCC(COC(=O)C(C)(C)C)Cc1ccc(C(C)(C)C)cc1)c1ccc(NS(C)(=O)=O)cc1` (stereo partly drawn) [18-10, N-[2-(4-tert-Butylbenzyl)-3-(pivaloyloxy)propyl]-N′-{(1R)-1-[4-(methylsulfonylamino)phenyl]ethyl}thiourea] were, in that order, 88 to 90 °C, 23.9 nM and 9.95 nM.
`C[C@@H](NC(=S)NC[C@H](COC(=O)C(C)(C)C)Cc1ccc(C(C)(C)C)cc1)c1ccc(NS(C)(=O)=O)cc1` [18-11, N-[(2R)-2-(4-tert-Butylbenzyl)-3-(pivaloyloxy)propyl]-N′-{(1R)-1-[4-(methylsulfonylamino)phenyl]ethyl}thiourea] came in with a melting point of 85 to 87 °C. This compound gave a Ki in series [1] of 53 nM. The compound further returned a Ki in series [2] of 15.7 nM.
As for `C[C@@H](NC(=S)NC[C@@H](COC(=O)C(C)(C)C)Cc1ccc(C(C)(C)C)cc1)c1ccc(NS(C)(=O)=O)cc1` [18-12, N-[(2S)-2-(4-tert-Butylbenzyl)-3-(pivaloyloxy)propyl]-N′-{(1R)-1-[4-(methylsulfonylamino)phenyl]ethyl}thiourea], the melting point is 88 to 90 °C. Also, the Ki in series [1] came to 30.6 nM. This compound came in with a Ki in series [2] of 8.09 nM.
The corresponding values for `Cc1ccc(CC(CNC(=S)NC(C)c2ccc(NS(C)(=O)=O)c(F)c2)COC(=O)C(C)(C)C)cc1C` (stereo not drawn) [18-13, N-[2-(3,4-Dimethylbenzyl)-3-(pivaloyloxy)propyl]-N′-{1-[3-fluoro-4-(methylsulfonylamino)phenyl]ethyl}thiourea] are 73 °C, 7.09 nM and 37 nM.
On to `CC(NC(=S)NCC(COC(=O)C(C)(C)C)Cc1ccc(C(C)(C)C)cc1)c1ccc(NS(C)(=O)=O)c(F)c1` (stereo not drawn) [18-14, N-[2-(4-tert-Butylbenzyl)-3-(pivaloyloxy)propyl]-N′-{1-[3-fluoro-4-(methylsulfonylamino)phenyl]ethyl}thiourea], for which the melting point amounted to 78 °C. In series [1], this compound had a Ki of 9.34 nM. In series [2], this compound had a Ki of 37 nM.
`C[C@@H](NC(=S)N[C@@H](COC(=O)C(C)(C)C)Cc1ccccc1)c1ccc(NS(C)(=O)=O)cc1` [19-13, N-[(2R)-3-phenyl-1-pivaloyloxy-2-propyl]-N′-[(R)-α-methyl-4-(methylsulfonylamino)benzy]thiourea] had a melting point of 59 to 61 °C. In series [1], this compound came in with a Ki of 193 nM. Also, affinity in series [2] was put at a Ki of 420 nM.
`CCC(NC(=S)NCc1ccc(C(C)(C)C)cc1)c1ccc(NS(C)(=O)=O)c(F)c1` (stereo not drawn) [20-12, N-(4-t-Butylbenzyl)-N′-{1-[4-(methylsulfonylamino)-3-fluorophenyl]propyl}thiourea] registered a melting point of 85 °C. This compound also registered a Ki in series [1] of 54.3 nM. Further, the Ki in series [2] (setting [3]) was found to be 230 nM.
The like results for `CC(C)C(NC(=S)NCc1ccc(C(C)(C)C)cc1)c1ccc(NS(C)(=O)=O)c(F)c1` (stereo not drawn) [20-13, N′-(4-t-Butylbenzyl)-N-{1-[4-(methylsulfonylamino)-3-fluorophenyl]-2-methylpropyl}thiourea] were, in that order, 84 °C, 223 nM and 338 nM.
Compound `CC(C)(C)c1ccc(CNC(=S)NC(c2ccccc2)c2ccc(NS(C)(=O)=O)c(F)c2)cc1` (stereo not drawn) [20-14] displayed a melting point of 191 °C. In series [1], this compound registered a Ki of 861 nM. For the same compound, the Ki in series [2] (setting [3]) is 100 nM.
Regarding `CC(C)(C)c1ccc(CNC(=S)NC(Cc2ccccc2)c2ccc(NS(C)(=O)=O)c(F)c2)cc1` (stereo not drawn) [20-15, N-(4-t-Butylbenzyl)-N′-{1-[4-(methylsulfonylamino)-3-fluorophenyl]-2-phenylethyl}thiourea], the melting point was 116 °C. In series [1], the affinity corresponds to a Ki of 695 nM. For the same compound, in series [2] (setting [3]), the Ki was 1740 nM.
Turning to `CC(C)(C)c1ccc(CNC(=S)NC(C)(C)c2ccc(NS(C)(=O)=O)c(F)c2)cc1` [21-8, N-(4-t-Butylbenzyl)-N′-{1-methyl-1-[3-fluoro-4-(methylsulfonylamino)phenyl]ethyl}thiourea], the melting point is 83 to 85 °C. The compound also showed a Ki in series [1] of 983 nM. The Ki in series [2] (setting [3]) worked out at 7740 nM.
The compound `COc1cc(C(C)(C)NC(=S)NCc2ccc(C(C)(C)C)cc2)ccc1NS(C)(=O)=O` [21-9, N-(4-t-Butylbenzyl)-N′-{1-methyl-1-[3-methoxy-4-(methylsulfonylamino)phenyl]ethyl}thiourea] displayed a melting point of 148 to 150 °C. Moreover, in series [1], the affinity corresponds to a Ki of 663 nM. Besides, the Ki in series [2] (setting [3]) was determined as 2890 nM.
